# How the values were obtained:
# Experiment in all cases: Agar dilution method microbicidal test
# Type in all cases: cell-based
# Yersinia enterocolitica = test system: Yersinia enterocolitica; for Growth on agar plate: key: +: grew; −: did not grow
# In short: (§1)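 Compound stocks in DMSO mixed into BHI agar → plates at 4.0 to 0.25 mg/mL final; MHB suspensions (turbidity 1, 10^8/mL) diluted 100-fold, 10 μL spotted; 37° C, 18 h; MIC = lowest growth-inhibiting conc.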
# Enterococcus faecalis = test system: Enterococcus faecalis; note: key: +: grew; −: did not grow
# In short: (§2)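 Serial twofold DMSO dilutions (water for catechin) give BHI agar plates with 0.25–4.0 mg/mL final compound, inoculated with 10 μL of 10^6/mL bacterial suspension. After 18 hours at 37° C, MIC is taken as the lowest inhibitory concentration.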
# Staphylococcus aureus = test system: Staphylococcus aureus; for Growth on agar plate: key: +: grew; −: did not grow
# In short: as §1
# Bacillus cereus = test system: Bacillus cereus; for Growth on agar plate: key: +: grew; −: did not grow
# In short: as §2
# Pseudomonas aeruginosa = test system: Pseudomonas aeruginosa; for Growth on agar plate: key: +: grew; −: did not grow
# In short: as §2
# [1] = test system: Bacillus subtilis ATCC6633; conditions: Bacillus subtilis ATCC 6633; for Growth on agar plate: key: +: grew; −: did not grow
# In short: as §2
# Candida sp. = test system: Candida sp. For Growth on agar plate: key: +: grew; −: did not grow.
# In short: as §1
substance,measurement,setting,value
catechin [reference compound],Growth on agar plate,Yersinia enterocolitica; 0.25 mg/mL,+
same,Growth on agar plate,Yersinia enterocolitica; 0.5 mg/mL,+
same,Growth on agar plate,Yersinia enterocolitica; 1.0 mg/mL,−
same,Growth on agar plate,Yersinia enterocolitica; 2.0 mg/mL,−
same,Growth on agar plate,Yersinia enterocolitica; 3.0 mg/mL,−
same,Growth on agar plate,Yersinia enterocolitica; 4.0 mg/mL,−
same,MIC,"Yersinia enterocolitica; BHI agar, 37° C., 18 hours",1000 µg/mL
same,Growth on agar plate,Enterococcus faecalis; 0.25 mg/mL,+
same,Growth on agar plate,Enterococcus faecalis; 0.5 mg/mL,+
same,Growth on agar plate,Enterococcus faecalis; 1.0 mg/mL,+
same,Growth on agar plate,Enterococcus faecalis; 2.0 mg/mL,+
same,Growth on agar plate,Enterococcus faecalis; 3.0 mg/mL,+
same,Growth on agar plate,Enterococcus faecalis; 4.0 mg/mL,+
same,Growth on agar plate,Staphylococcus aureus; 0.25 mg/mL,+
same,Growth on agar plate,Staphylococcus aureus; 0.5 mg/mL,+
same,Growth on agar plate,Staphylococcus aureus; 1.0 mg/mL,−
same,Growth on agar plate,Staphylococcus aureus; 2.0 mg/mL,−
same,Growth on agar plate,Staphylococcus aureus; 3.0 mg/mL,−
same,Growth on agar plate,Staphylococcus aureus; 4.0 mg/mL,−
same,MIC,"Staphylococcus aureus; BHI agar, 37° C., 18 hours",1000 µg/mL
same,Growth on agar plate,Bacillus cereus; 0.25 mg/mL,+
same,Growth on agar plate,Bacillus cereus; 0.5 mg/mL,+
same,Growth on agar plate,Bacillus cereus; 1.0 mg/mL,−
same,Growth on agar plate,Bacillus cereus; 2.0 mg/mL,−
same,Growth on agar plate,Bacillus cereus; 3.0 mg/mL,−
same,Growth on agar plate,Bacillus cereus; 4.0 mg/mL,−
same,MIC,"Bacillus cereus; BHI agar, 37° C., 18 hours",1000 µg/mL
same,Growth on agar plate,Pseudomonas aeruginosa; 0.25 mg/mL,+
same,Growth on agar plate,Pseudomonas aeruginosa; 0.5 mg/mL,+
same,Growth on agar plate,Pseudomonas aeruginosa; 1.0 mg/mL,−
same,Growth on agar plate,Pseudomonas aeruginosa; 2.0 mg/mL,−
same,Growth on agar plate,Pseudomonas aeruginosa; 3.0 mg/mL,−
same,Growth on agar plate,Pseudomonas aeruginosa; 4.0 mg/mL,−
same,MIC,"Pseudomonas aeruginosa; BHI agar, 37° C., 18 hours",1000 µg/mL
same,Growth on agar plate,[1]; 0.25 mg/mL,+
same,Growth on agar plate,[1]; 0.5 mg/mL,+
same,Growth on agar plate,[1]; 1.0 mg/mL,+
same,Growth on agar plate,[1]; 2.0 mg/mL,+
same,Growth on agar plate,[1]; 3.0 mg/mL,−
same,Growth on agar plate,[1]; 4.0 mg/mL,−
same,MIC,"[1]; BHI agar, 37° C., 18 hours",3000 µg/mL
same,Growth on agar plate,Candida sp.; 0.25 mg/mL,+
same,Growth on agar plate,Candida sp.; 0.5 mg/mL,+
same,Growth on agar plate,Candida sp.; 1.0 mg/mL,−
same,Growth on agar plate,Candida sp.; 2.0 mg/mL,−
same,Growth on agar plate,Candida sp.; 3.0 mg/mL,−
same,Growth on agar plate,Candida sp.; 4.0 mg/mL,−
same,MIC,"Candida sp.; BHI agar, 37° C., 18 hours",1000 µg/mL

# From US20100190846A1, “MICROBICIDAL AGENT AND MICROBICIDAL COMPOSITION” (priority 2006, published 2010)
